Here are results for seven molecules from publication PMC7359039, “Peptides based on the reactive center loop of Manduca sexta serpin-3 block its protease inhibitory function” (Scientific Reports, 2020).

Data set [1] deals with serpin-3∆N. Description: Circular dichroism thermal stability of serpin-3∆N and its binary complex with peptide. It counts as physicochemical, Manduca sexta. Conditions: binary complex purified by gel permeation; 10 mM Tris, 5 mM NaCl, pH 8.0; 90 °C highest temperature tested. How it is done:
To examine effects of RCL-derived peptides on serpin-3ΔN secondary structure, 600 µL serpin-3ΔN (150 μg) and 1.8 mL Ac-SVAFS-COO^− (25 μmol) were mixed and incubated at 37 °C for 2 h to allow formation of a serpin-peptide binary complex. Then the mixture was subjected to gel permeation chromatography using Superdex 200 10/300 GL ([…]) in 20 mM Tris–HCl, 150 mM NaCl, pH 8.0 to separate binary complex from free peptide. The fractions containing serpin-3ΔN, presumed to be in complex with peptide, were pooled and quantified. Ellipticity of serpin-3ΔN (0.149 mg/ml) or purified binary complex (0.129 mg/ml) in 10 mM Tris, 5 mM NaCl, pH 8.0 was measured in a 0.01 cm cuvette from 190 to 260 nm at 20 °C. The temperature was then increased in 10 °C increments, and the spectra were measured at each temperature from 20 to 90 °C. The ellipticity of the buffer was also recorded and subtracted from that of serpin-3ΔN and binary complex. The data were smoothed by the method of Savitzky-Golay with value of 15[33]. Mean residue ellipticity was calculated as (ellipticity × mean residue weight)/(10 × 0.01 cm × concentration). Three replicates were examined and results were visualized by GraphPad Prism (means ± standard deviation).
In general terms: Circular dichroism is widely used to follow secondary structure.

The nature of data set [2]: Aqueous solubility of peptides (qualitative). Conditions: qualitative statement. It counts as physicochemical.
Data set [3] has as its system proPO activation system in plasma. The experiment in a line: proPO activation in plasma with added serpin-3∆N, untreated or pre-incubated with peptide. It counts as biochemical, Manduca sexta. Conditions: peptide 10 nmol pre-incubated with serpin-3∆N 0.1 µg at 37 °C 2 h, 2 µl plasma, one unit = 0.001 change of OD470 per minute, mean ± SD, n = 4 larvae. How it is done: Hemolymph was collected from day 2 fifth instar larvae and centrifuged at 12,000 rpm for 25 min at 4 °C to remove hemocytes, to prepare plasma samples containing the proPO activation system. To examine the effect of pre-incubation of peptide with serpin before exposure to plasma, Ac-SVAFS-COO^− (10 nmol in TFE) or TFE alone were dried in wells of a 96-well plate and then incubated with 4 µL serpin-3ΔN (0.1 µg) at 37 °C for 2 h, followed by incubation with 2 μl plasma at room temperature for 10 min. Then the proPO cascade was stimulated by addition of 1 μg Micrococcus luteus to activate the proPO protease cascade or filter-sterilized 0.85% NaCl as a control. These mixtures were incubated at room temperature for 10 min, and then PO activity was measured by adding 100 μl of 4 mM dopamine as substrate in 50 mM sodium phosphate, pH 6.5. PO activity was measured by detecting increase in absorbance at 470 nm. One unit of PO activity was defined as 1,000 × ∆A470/minute. Three replicates with four different larval plasma samples were examined. Paired one-way ANOVA with Tukey’s multiple comparison as post test was performed in GraphPad Prism.

In data set [4] the test system is serpin-3∆N. Description: Time course of inactivation of serpin-3∆N by pentapeptides. It counts as biochemical, Manduca sexta. Conditions: peptide 400 nmol, serpin-3∆N 720 ng, 37 °C; for suppression of serpin-3∆N inhibitory activity by 40 min: aliquots with 72 ng PAP3 10 min room temperature, IEARase activity. The method, then:
To examine the time course of peptide interaction with serpin-3ΔN, pre-dried Ac-SVAFS-NH2 or Ac-SVAFS-COO^- (400 nmol) were incubated with 40 μL purified serpin-3ΔN (720 ng) supplemented with 40 μL BSA (80 μg) at 37 °C for 1 h. At 0, 10, 20, 40 and 60 min, 12 μL aliquots were withdrawn and immediately incubated with 72 ng of PAP3 at room temperature for 10 min, followed by measuring residual PAP3 activity with […] in 0.1 M Tris, 0.1 M NaCl, 5 mM CaCl2, pH 8.0.

In data set [5] the test system is serpin-3∆N. The experiment in a line: SDS-PAGE and immunoblot of serpin-3∆N/PAP3 inhibitory complex formation in presence of peptides. Conditions: peptide 25 nmol, serpin-3∆N 135 ng 37 °C 2 h, PAP3 108 ng 10 min; reducing SDS-PAGE, serpin-3 antiserum. It counts as biochemical, Manduca sexta. The method, then:
Protein concentration was measured using Coomassie Plus Protein Assay Reagent (Thermo Scientific), with bovine serum albumin as a standard. Protein samples analyzed by SDS polyacrylamide gel electrophoresis were mixed with 2 × or 6 × SDS loading buffer (supplemented with β-mercaptoethanol) followed by heating at 95 °C for 5 min. Samples were loaded into wells of 4–12% Bis–Tris NuPAGE gels (Invitrogen) and separated by electrophoresis using MOPS buffer. The gels were stained using Instant Blue (Expedeon) or transferred to nitrocellulose in a semi-dry transfer cell (Bio-Rad). The presence of PAP3 or serpin-3ΔN on the membrane was detected using rabbit antisera to PAP3[31] or serpin-3[13], followed by goat anti-rabit IgG conjugated to alkaline phosphatase (BioRad) and colorimetric detection of immobilized alkaline phosphatase activity.
Peptides (25 nmol) in TFE or TFE alone as a control were applied to wells of a 96-well plate and allowed to dry (> 1 h). Serpin-3ΔN (135 ng/7.5 µl) was then added to the wells and incubated at 37 °C for 2 h. […] The PAP3 substrate N-acetyl-Ile-Glu-Ala-Arg-p-nitroanilide (IEAR-pNA) at 50 µM in 0.1 M Tris, 0.1 M NaCl, 5 mM CaCl2, pH 8.0 was then added, and residual PAP3 activity was measured by the change of absorbance at 405 nm over 20 min at room temperature. […] Samples were then analyzed by reducing SDS-PAGE and immunoblotting as described above.
In general terms: A western blot detects proteins with antibodies after separation by electrophoresis.

Data set [6] has as its system proPO activation system in plasma (endogenous serpin-3). The experiment in a line: proPO activation in plasma mixed directly with peptide. Conditions: plasma incubated with pre-dried peptide 1 h room temperature, then M. luteus 10 min; one unit = 0.001 change of OD470 per minute; mean ± SD, n = 4 larvae. It counts as biochemical, Manduca sexta. How it is done:
For an experiment to test the effects of peptide mixed directly to plasma samples, pre-dried Ac-SVAFS-NH2 (25 nmol) or TFE in wells of a 96-well plate were incubated with 5 μl plasma for 1 h at room temperature, followed by addition of 95 μl of 50 mM sodium phosphate buffer, pH 6.5 supplemented with or without 2 μg of M. luteus (Sigma). After incubation for 10 min at room temperature, PO activity was measured as described above. Three replicates with four different larval plasma samples were examined. Statistical analysis was done as described above.

The test system of data set [7] is serpin-3∆N. Description: Blocking of serpin-3∆N inhibition of PAP3 by RCL-derived peptides (residual IEARase activity). It counts as biochemical, Manduca sexta. Conditions: serpin-3∆N 135 ng, 37 °C 2 h; for PAP3 activity (percentage of IEARase activity) after treatment of serpin-3∆N with peptide: peptide 25 nmol pre-dried, then PAP3 108 ng 10 min room temperature, IEAR-pNA 50 µM, mean ± SD, n = 3; for blockage of serpin-3∆N inhibition of PAP3: peptide 25 nmol, PAP3 108 ng. The method, then:
Peptides (25 nmol) in TFE or TFE alone as a control were applied to wells of a 96-well plate and allowed to dry (> 1 h). Serpin-3ΔN (135 ng/7.5 µl) was then added to the wells and incubated at 37 °C for 2 h. PAP3 (108 ng) supplemented with 18 μg bovine serum albumin (BSA) in 46.5 µl 20 mM Tris, 150 mM NaCl, pH 8.0,was then added to the wells and incubated for 10 min at room temperature. The PAP3 substrate N-acetyl-Ile-Glu-Ala-Arg-p-nitroanilide (IEAR-pNA) at 50 µM in 0.1 M Tris, 0.1 M NaCl, 5 mM CaCl2, pH 8.0 was then added, and residual PAP3 activity was measured by the change of absorbance at 405 nm over 20 min at room temperature. Percentage of IEARase activity was defined as IEARase activity divided by IEARase activity of PAP3 in the absence of serpin. One-way ANOVA with Tukey’s multiple comparison as post test was performed in GraphPad Prism. Samples for analysis by reducing SDS-PAGE and immunoblotting were prepared in a similar way. Peptides or TFE were dried in 1.5 mL microcentrifuge tubes and incubated with 7.5 µl serpin-3ΔN (135 ng) at 37 °C for 2 h, followed by addition of 46.5 µl PAP3 (108 ng) supplemented with 18 µg BSA. and further incubated for 10 min at room temperature. Samples were then analyzed by reducing SDS-PAGE and immunoblotting as described above.

For data set [8], the target named is Manduca sexta prophenoloxidase activating protease 3 (PAP3), activated form (Manduca sexta).
The target of data set [9] is Manduca sexta serpin-3∆N (Manduca sexta).
For data set [10] the target is unchanged. The source holds these as a separate data set.

Regarding Ac-SVAFS-COO^−, the “temperature up to which serpin-3∆N in complex with peptide showed little change in CD spectrum” value in the data set with serpin-3∆N [1] was at least 90 °C. The aqueous solubility entry in data set [2] was “improved solubility”. In data set [2] (listed as five residue peptide SVAFS with only an N-terminal acetylated group), the aqueous solubility result is listed as “much more soluble”. Moreover, the “PO activity in M. luteus-stimulated plasma with peptide-treated serpin-3∆N added” value in data set [3] was 8.7 ± 2.8 unit. Further, in the data set on serpin-3∆N [4], the “time after which inactivation of serpin-3∆N began to occur” value is at most 10 min and the “suppression of serpin-3∆N inhibitory activity by 40 min” value is on record as ~ 100%.

“Ac-SVAFS-NH2 [pentapeptide from serpin-3 RCL P14-P10, acetylated and amidated]”: the “~75 kDa serpin-3∆N-PAP3 inhibitory complex on immunoblot” value with serpin-3∆N [5] was “absence”. Besides, the “PO activity in plasma incubated with peptide, after addition of bacteria” value in data set [6] amounted to 10.7 ± 5.5 unit. Further, the aqueous solubility entry in data set [2] is “very low”. In addition, in the data set with serpin-3∆N [7], the “PAP3 activity (percentage of IEARase activity) after treatment of serpin-3∆N with peptide” value is 100% ± 6% and the “blockage of serpin-3∆N inhibition of PAP3” value is reported as “completely blocked”. Besides, in the data set on serpin-3∆N [4], the “time after which inactivation of serpin-3∆N began to occur” value was at most 10 min and the “suppression of serpin-3∆N inhibitory activity by 40 min” value is listed as ~ 100%.

As for “Ac-SVAFSATQ-NH2 [octapeptide from serpin-3 RCL P14-P7]”, in the data set on serpin-3∆N [7], the “PAP3 activity (percentage of IEARase activity) after treatment of serpin-3∆N with peptide” value is listed as 59% ± 5% and the “blockage of serpin-3∆N inhibition of PAP3” value is recorded as “about 50%”.

In [8], “Manduca sexta serpin-3∆N (domain or fragment)” registered a residual PAP3 amidase (IEARase) activity on IEAR-pNA after 10 min with serpin-3∆N, percent of PAP3 without serpin of 9%.

B1: Ac-SVAFS-NH2 (peptide)
peptide: Ac-SVAFS-NH2
B1: in [9], the residual PAP3 amidase (IEARase) activity after serpin-3∆N was pre-treated with 25 nmol peptide (37 °C, 2 h); the peptide blocks inhibition of PAP3 by serpin-3∆N worked out at 100%. The same molecule came in with a time course (0-60 min at 37 °C, 400 nmol peptide) of suppression of serpin-3∆N inhibition of PAP3, read as PAP3 IEARase activity in data set [10] of 100%.

B2: Ac-SVAFSATQ-NH2 (peptide)
peptide: Ac-SVAFSATQ-NH2
For B2, the residual PAP3 amidase (IEARase) activity after serpin-3∆N was pre-treated with 25 nmol peptide (37 °C, 2 h); the peptide blocks inhibition of PAP3 by serpin-3∆N in [9] came out at 59%.

B3: Ac-SVAFS-COO^− (peptide)
peptide: Ac-SVAFS-OH
In [10], B3 displayed a time course (0-60 min at 37 °C, 400 nmol peptide) of suppression of serpin-3∆N inhibition of PAP3, read as PAP3 IEARase activity of 100%.
